# Data: patent US7138543B2, “Thiolalkyl benzoic acid derivatives” (Guilford Pharmaceuticals Inc., priority 2001, dated 2006)
# Columns and labels:
# [1] = test system: rats with unilateral elevation of intraocular pressure; experiment: Experimental rat glaucoma (IOP elevation, optic nerve fiber counting); format: in vivo; settings: for FIBER NUMBER: 10 mg/kg daily intraperitoneal; for PERCENT DIFFERENCE in fiber number between glaucoma and normal eye: positive value indicates fewer fibers in the glaucoma eye
# Method: Protective Effect of NAALADase Inhibitors in Experimental Rat Glaucoma
# (§1) All experiments complied with the Association for Research in Vision and Ophthalmology Statement for the Use of Animals in Ophthalmic and Vision Research. 82 male Brown Norway rats (Rattus norvegicus), each weighing approximately 250 gm, were treated using procedures approved by the Animal Care Committee of the Johns Hopkins University School of Medicine. The rats were housed with a 12 hour light/12 hour dark cycle and fed ad libitum.
# EXPERIMENTAL GLAUCOMA: Unilateral elevation of intraocular pressure (“IOP”) was produced in 56 rats by microinjection of hypertonic saline into episcleral veins, following procedures described in Morrison, J. et al., IOVS (March 1998) 39:526–531. Beginning on the day of IOP elevation, the rats were treated daily with intraperitoneal injections of either a vehicle (23 rats with 50 mM HEPES-buffered saline) or a NAALADase inhibitor (11 rats with 10 mg/kg of Compound A and 22 rats with 10 mg/kg of Compound B). 11 saline treated rats, 11 Compound A treated rats and 11 Compound B treated rats were sacrificed at 8 weeks, and the remaining rats at 12 weeks, after initial IOP elevation.
# (§2) OPTIC NERVE COUNTING: The rats were sacrificed by exsanguination under deep pentobarbital anesthesia. They were perfused through the heart with 2% paraformaldehyde/2% glutaraldehyde in 0.1 M phosphate buffer, pH 7.2, and the eyes with attached optic nerves were removed. A cross-section of the optic nerve from both experimental (glaucoma or transection) and control eyes was removed 1.5 mm posterior to the globe, 1 mm in thickness, and post-fixed in 2% osmium tetroxide in buffer. These were processed into epoxy resin, sectioned at 1 micron and stained with toluidine blue.
# (§3) The area of the optic nerve cross-section was measured by outlining its outer border at 10× magnification on an image analysis system (Universal Imaging Corp., Westchester, Pa.) with Synsys digital camera and Metamorph software. Three area measurements were taken and the mean value was determined. To measure the density and fiber diameter distributions, images were captured with a 100× phase contrast objective from 10 different areas of each nerve. These were edited to eliminate non-neural objects and the size of each axon internal to the myelin sheath (its minimum diameter) and the density of axons/square mm were calculated for each image and nerve. The mean density was multiplied by total nerve area to yield fiber number for each nerve. The total fiber number in glaucoma or transection nerves was compared to the normal, fellow eye of each rat to yield a percent loss value. The number of axons counted among the 10 images was an approximately 20% sample of the 80–90,000 axons in normal rat nerves. The person measuring axon number was masked to the protocol conducted on the nerves.
# [2] = test system: rats with unilaterally transected optic nerve; experiment: Optic nerve transection (optic nerve fiber counting); format: in vivo, Rattus norvegicus; settings: for FIBER NUMBER: 10 mg/kg daily intraperitoneal
# Method: as §1
# OPTIC NERVE TRANSECTION: The optic nerve was transected unilaterally in 26 rats under intraperitoneal pentobarbital anesthesia. The conjunctiva was opened with scissors and the optic nerve exposed by traction on extraocular muscles. The transection was performed with microscissors 5 mm posterior to the globe, with specific attention to avoidance of injury to major ocular blood vessels. Immediately after transection, the retina was examined ophthalmoscopically to assure that the retinal arterial blood supply was not disrupted. The conjunctiva was closed with absorbable suture and the eye dressed with antibiotic ointment. Beginning on the day of transection, the rats were treated daily with intraperitoneal injections of either a vehicle (9 rats with 50 mM HEPES-buffered saline) or a NAALADase inhibitor (8 rats with 10 mg/kg of Compound A and 9 rats with 10 mg/kg of Compound B). 5 saline treated rats, 3 Compound A treated rats, and 4 Compound B treated rats were sacrificed at 2 weeks, and the remaining rats at 4 weeks, after transection.
# as §2, §3
# [3] = test system: transgenic HD mice of the N171-82Q strain; experiment: Huntington's disease transgenic mouse model: rotarod and locomotion; format: in vivo
# Method: Neuroprotective Effect of NAALADase Inhibitors in Transgenic Mouse Model of Huntington's Disease Behavioral Testing (Rotarod) Transgenic HD mice of the […]-[…] strain and non-transgenic littermates were treated with NAALADase inhibitor Compound B (30 mg/kg) or a vehicle from 10 weeks of age. The mice were placed on a rotating rod (“rotarod”). The length of time at which the mouse fell off the rotarod was recorded as a measure of motor coordination. […] The treatment with Compound B had no effect on the rotarod performance of normal non-HD mice. The total distance traveled by the mice was also recorded as a measure of overall locomotion.
# [4] = test system: transgenic HD mice (N171-82Q); experiment: Huntington's disease transgenic mouse model: survival; format: in vivo
# Method: The effects of Compound B and vehicle on the survival of transgenic HD mice (N171-82Q) were evaluated. Thirteen mice (six male and seven female) were assigned to the Compound B treatment group, and fourteen mice (six male and eight female) were assigned to the vehicle treatment group. Treatment was continued until all the mice died.
# [5] = test system: STZ-diabetic rats; experiment: Neuropathic pain in STZ model (Hargreaves thermal nociception); format: in vivo, Sprague-Dawley rats; settings: 10 mg/kg i.p. daily, started 45 days post-STZ
# Method: In vivo Assay of NAALADase Inhibitors on Neuropathic Pain in STZ Model
# Male Sprague-Dawley rats (200–225 g) were rendered diabetic by intravenous administration of streptozotocin (“STZ”, 70 mg/kg in phosphate buffered saline). Diabetic animals were divided into five groups: one group receiving Compound A (10 mg/kg or 1 mg/kg), Compound D (10 mg/kg or 1 mg/kg) or vehicle. Another group of animals (non-STZ treated) served as non-diabetic controls. Drug/vehicle treatment was started in diabetic animals 45 days post-STZ administration. STZ-induced diabetic rats were tested for sensitivity to a heat source as soon as blood glucose levels rose to 320 mg/dl or above (30 days post STZ). The rats were then acclimated to a Hargreaves apparatus and thermal nociception was monitored using an infrared heat source directed into the dorsal surface of the hindpaw, and the time taken for the animal to remove its paw noted to the nearest 0.1 seconds (see Hargreaves et al., J. Biol. Chem. (1988) 263(36):19392–7 for a description of the experimental method). The intensity of the beam source was adjusted such that the mean latency for control animals (non-STZ treated) was approximately 10 seconds. Each animal was tested 8 times and the mean difference score (between mean non-diabetic control latency and mean diabetic latency) are graphically presented in FIGS. 7A and 7B.
# [6] = test system: BB/W diabetic rats; experiment: Progression of neuropathic pain in BB/W model (withdrawal latency); format: in vivo; settings: 10 mg/kg i.p. daily; vs diabetic vehicle-treated rats, from 4 weeks through six months of treatment, FIG. 11
# From the text: In vivo Assay of NAALADase Inhibitors on Progression of Neuropathic Pain in BB/W Models
# (§4) Male BB/W rats (BRI, Mass) spontaneously develop a cell mediated autoimmune destruction of pancreatic B cells, resulting in onset of insulin-dependent (Type I) diabetes (Awata, Guberski, Endocrinology (1995) 136(12):5731–5). […] This renders them valuable for experimental trials of new compounds for future treatments of this major disorder. In the present study, Compound A and Compound D were examined for their ability to alter the progression of diabetic neuropathy. The rats received daily injection of Compound A or Compound D (10 mg/kg i.p.) or vehicle, starting at the onset of diabetes (hyperglycemia) and up to 6 months thereafter. Another group of non-diabetic rats also receiving vehicle were tested. All animals were continuously monitored for body weight, urine volume, blood sugar and glycated haemoglobin. In the first month of the study, all animals were tested for thermal nociception in a Hargreaves apparatus, weekly. After the first month this was done biweekly and then monthly. The testing consists of directing an infrared heat source onto the dorsal surface of the rat hindpaw and noting the time taken for the animal to remove its paw (see Hargreaves et al., J. Biol. Chem. (1988) 263(36):19392–7 for a description of the experimental method). […]
# [7] = test system: BB/W diabetic rats; experiment: Nerve conduction velocity in BB/W model; format: in vivo; settings: 10 mg/kg daily; vs diabetic vehicle controls, from 8 weeks to six months, FIG. 12
# From the text: as §4, with “monthly.” for “monthly. The testing consists of directing an infrared heat source onto the dorsal surface of the rat hindpaw and noting the time taken for the animal to remove its paw (see Hargreaves et al., J. Biol. Chem. (1988) 263(36):19392–7 for a description of the experimental method).”
# Nerve conduction velocity was also measured every two weeks through the first eight weeks of treatment and every month thereafter through to the six months of treatment (see De Koning et al., Peptides, Vol. 8, No. 3, pp. 415–22 (1987) for a description of the experimental method). […]
# [8] = test system: STZ-diabetic rats; experiment: Diabetic neuropathy in STZ model (motor and sensory nerve conduction velocity); format: in vivo
# Method: In vivo Assay of NAALADase Inhibitors on Diabetic Neuropathy in STZ Model
# Motor and sensory nerve conduction velocity was also measured in STZ-diabetic animals after 4, 8 and 12 weeks of treatment (see De Koning et al., supra, for a description of the experimental method). Briefly, stimulating needle electrodes were inserted close to the sciatic and tibial nerves with recording electrodes being placed subcutaneously over the distal foot muscles, in anesthetized rats.
# [9] = test system: STZ diabetic rats; experiment: Reversal of diabetic neuropathy in STZ model, delayed dosing: thermal hyperalgesia; format: in vivo
# Method: (§5) In vivo Assay of NAALADase Inhibitors—Reversal of Diabetic Neuropathy in STZ Model
# (§6) General Method for STZ Model—Delayed Dosing
# (§7) Rats (200–225 grams) were injected with STZ (70 mg/kg) into the tail vein. Diabetes (>350 mg/dl) was confirmed in all rats, 4 weeks after STZ administration. Rats were left untreated until 35–49 days after STZ. Compound D (1, 3, or 10 mg/kg), Compound E (10 mg/kg), or vehicle were dosed daily p.o. following confirmation of hyperalgesia and/or nerve conduction velocity deficits. In separate experiments, onset of treatment was delayed until 60 to 90 days after STZ administration. Nerve conduction velocity or withdrawal response to thermal stimulation of hind paws was measured at intervals, usually bi-weekly for thermal response and monthly for nerve conduction velocity.
# Animals were acclimated to the apparatus for at least 5 min. An infra-red source was placed under below the plantar surface of the rat hind-paw. The intensity of the source was adjusted so that latency for normal rats was about 10 secs. Animals were tested for thermal response latency according to the method of Hargreaves et al (Pain 77–88, 1988). Each animal was tested 8 times (4 each hind limb) and the latency of response recorded automatically to nearest 0.1 sec. An average of the last 4 measurements for each paw was calculated (8 total measurements) and noted for each rat.
# [10] = test system: STZ diabetic rats; experiment: Reversal of diabetic neuropathy in STZ model, delayed dosing: nerve conduction velocity; format: in vivo
# Method: as §5, §6, §7
# Nerve Conduction Velocity Measurements
# Sensory and motor nerve conduction velocities were evaluated using the method of De Koning and Gispen (Peptides 8: 415–422, 1987). Electrophysiological evaluation was carried out within one hour of dosing. Animals were anesthetized with isoflurane and stimulating needle electrodes were inserted close to the sciatic nerve at the sciatic notch and the tibial nerve near the ankle. Recording electrodes were placed over the foot muscles. Stimuli were applied and responses recorded. Motor and sensory nerve conduction velocities were calculated by measuring the distance between the sciatic notch and ankle sites, and the latency between the M-wave and the H-reflex.
# [11] = 2 weeks survival after transection
# [12] = 4 weeks survival after transection
structure (smiles),measurement,setting,value
"O=C(O)CCC(CCCS)C(=O)O (stereo not drawn) [Compound B, 2-(3-sulfanylpropyl)pentanedioic acid]",FIBER NUMBER,[1]; 8 week group,80785 ± 2121
same,PERCENT DIFFERENCE in fiber number between glaucoma and normal eye,[1]; 8 week group,−0.82 ± 2.97%
same,FIBER NUMBER,[1]; 12 week group,90504 ± 1718
same,PERCENT DIFFERENCE in fiber number between glaucoma and normal eye,[1]; 12 week group,−3.21 ± 2.86%
same,remaining axons relative to the saline-treated rats,[2]; 2 weeks after transection,twice
same,PERCENT DIFFERENCE in fiber number,[2]; [11],75.3 ± 14.8%
same,FIBER NUMBER,[2]; [11],"19,550 ± 11,383"
same,PERCENT DIFFERENCE in fiber number,[2]; [12],93.4 ± 6.2%
same,FIBER NUMBER,[2]; [12],"5,162 ± 5,017"
same,rotarod performance,"[3]; normal non-HD mice, 30 mg/kg",no effect
same,rotarod performance (time on rotarod),"[3]; transgenic HD mice, 30 mg/kg from 10 weeks of age, vs vehicle, FIG. 33",stayed longer on the rotarod
same,survival time,"[4]; female transgenic HD mice, vs vehicle, p-value=0.03, FIG. 37",significantly prolonged survival time
same,median survival time,"[4]; transgenic HD mice, all, vehicle 158.5 days, p-value=0.07, FIG. 35",184 days
"O=C(O)CCC(CCS)C(=O)O (stereo not drawn) [Compound D, 2-(2-sulfanylethyl)pentanedioic acid]",hyperalgesic response (withdrawal latency difference score),[5],completely reversed
same,withdrawal latency,[6],longer withdrawal latencies
same,nerve conduction velocity,[7],significantly less severe nerve conduction deficits
same,treatment time at which increase of motor and sensory nerve conduction velocities was significant,[8]; 1 mg/kg dose,at the earlier time periods
same,motor and sensory nerve conduction velocities,"[8]; either dose (10 mg/kg or 1 mg/kg), vs diabetic controls, FIGS. 10A and 10B",increased both motor and sensory nerve conduction velocities
same,neuropathic hyperalgesia (thermal response latency),"[9]; daily p.o., treatment from 5 weeks post STZ, within two weeks of treatment, FIG. 22",reversed towards normal
same,neuropathic pain abnormalities,"[9]; lower doses (1 and 3 mg/kg) initiated after 7 weeks of STZ treatment, FIG. 25",Significant reduction in pain abnormalities
same,motor nerve conduction velocity,"[10]; daily p.o., within 8 weeks of dosing, persisted through 12 weeks, FIG. 23",reversed the motor nerve conduction velocity towards normal
same,motor nerve conduction,"[10]; lower doses (1 and 3 mg/kg), even 8 weeks after dosing, FIG. 27",remained unimproved
same,sensory nerve conduction,"[10]; lower doses (1 and 3 mg/kg), within 4 weeks of treatment, FIG. 26",significantly improved towards normal
same,sensory and motor nerve conduction velocity deficits,"[10]; untreated until 60 days after STZ treatment, external CRO, FIGS. 28 and 29",Partial reversal of both deficits
